Measured values as given in patent US20230348442A1, “GALECTIN-3 INHIBITING 2-HYDROXYCYCLOALKANE-1-CARBAMOYL DERIVATIVES” (Idorsia Pharmaceuticals Ltd, priority 2020, published 2023).

Target: human Gal-3 (hGal-3) (Homo sapiens (Human), UniProt P17931)
Experiment: competitive binding assay: binding of biotinylated hGal-3 to microplate-adsorbed asialofetuin (ASF), spectrophotometric
Conditions: Activity on hGal-3; mean values of several measurements
How it was run: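 For hGal-1, a variant with all six cysteines replaced by serines is preferred. Either galectin, biotinylated at 300-1000 ng/mL, competes with compound for microplate-bound ASF over 3 h at 4° C; peroxidase/ABTS detection gives IC50, averaged.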

Chain of human Gal-3 (hGal-3) (P17931 whole entry): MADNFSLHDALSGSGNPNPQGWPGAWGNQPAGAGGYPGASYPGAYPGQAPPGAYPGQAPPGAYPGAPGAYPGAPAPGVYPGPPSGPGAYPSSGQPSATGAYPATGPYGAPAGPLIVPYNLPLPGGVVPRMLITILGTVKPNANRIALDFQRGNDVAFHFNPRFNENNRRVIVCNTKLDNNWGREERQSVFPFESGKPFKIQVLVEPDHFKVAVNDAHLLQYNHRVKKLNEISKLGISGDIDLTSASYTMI

Cc1c(F)cc(-c2cn([C@H]3[C@@H](O)[C@@H](CO)O[C@@H](C(=O)N(c4cc(Cl)cc(C#N)c4)[C@H]4CCC[C@@H]4O)[C@@H]3O)nn2)cc1F [Example 1H.4.4, (2R,3R,4S,5R,6R)-N-(3-chloro-5-cyanophenyl)-4-(4-(3,5-difluoro-4-methylphenyl)-1H-1,2,3-triazol-1-yl)-3,5-dihydroxy-N-((1S,2S)-2-hydroxycyclopentyl)-6-(hydroxymethyl)tetrahydro-2H-pyran-2-carboxamide]
IC50: 19.3 nM

CO[C@@H]1[C@@H](n2cc(-c3ccc(Br)cc3)nn2)[C@@H](O)[C@@H](CO)O[C@H]1C(=O)N(c1cc(Cl)cc(C#N)c1)[C@@H]1CCC[C@H]1O [Example 1.19.4R, (2R,3R,4S,5R,6R)-4-(4-(4-bromophenyl)-1H-1,2,3-triazol-1-yl)-N-(3-chloro-5-cyanophenyl)-5-hydroxy-N-((1R,2R)-2-hydroxycyclopentyl)-6-(hydroxymethyl)-3-methoxytetrahydro-2H-pyran-2-carboxamide]
IC50: 312 nM

CO[C@@H]1[C@@H](n2cc(-c3cc(F)c(Br)c(F)c3)nn2)[C@@H](O)[C@@H](CO)O[C@H]1C(=O)N(c1cc(Cl)cc(C#N)c1)[C@@H]1CC[C@H]1O [Example 2.6.4R, (2R,3R,4S,5R,6R)-4-(4-(4-bromo-3,5-difluorophenyl)-1H-1,2,3-triazol-1-yl)-N-(3-chloro-5-cyanophenyl)-5-hydroxy-N-((1R,2R)-2-hydroxycyclobutyl)-6-(hydroxymethyl)-3-methoxytetrahydro-2H-pyran-2-carboxamide]
IC50: 174 nM

CO[C@@H]1[C@@H](n2cc(-c3ccc(C#N)c(F)c3)nn2)[C@@H](O)[C@@H](CO)O[C@H]1C(=O)N(c1cc(Br)cc(C#N)c1)[C@@H]1CC[C@H]1O [Example 2.16.5R, (2R,3R,4S,5R,6R)-N-(3-bromo-5-cyanophenyl)-4-(4-(4-cyano-3-fluorophenyl)-1H-1,2,3-triazol-1-yl)-5-hydroxy-N-((1R,2R)-2-hydroxycyclobutyl)-6-(hydroxymethyl)-3-methoxytetrahydro-2H-pyran-2-carboxamide]
IC50: 805 nM

O=C([C@@H]1O[C@H](CO)[C@H](O)[C@H](n2cc(-c3cc(F)c(F)c(F)c3)nn2)[C@H]1O)N(c1cc(Cl)cc(Cl)c1)[C@H]1CC[C@@H]1O [Example 2H.1.2, (2R,3R,4S,5R,6R)-N-(3,5-dichlorophenyl)-3,5-dihydroxy-N-((1S,2S)-2-hydroxycyclobutyl)-6-(hydroxymethyl)-4-(4-(3,4,5-trifluorophenyl)-1H-1,2,3-triazol-1-yl)tetrahydro-2H-pyran-2-carboxamide]
IC50: 67.5 nM

CO[C@@H]1[C@@H](n2cc(-c3cc(F)c(F)c(F)c3)nn2)[C@@H](O)[C@@H](CO)O[C@H]1C(=O)N(c1cc(C)cc(Cl)c1)[C@@H]1CC[C@H]1O [Example 2.1.3R, (2R,3R,4S,5R,6R)-N-(3-chloro-5-methylphenyl)-5-hydroxy-N-((1R,2R)-2-hydroxycyclobutyl)-6-(hydroxymethyl)-3-methoxy-4-(4-(3,4,5-trifluorophenyl)-1H-1,2,3-triazol-1-yl)tetrahydro-2H-pyran-2-carboxamide]
IC50: 258 nM

CC(=O)O[C@@H]1[C@@H](n2cc(-c3cc(F)c(F)c(F)c3)nn2)[C@@H](O)[C@@H](CO)O[C@H]1C(=O)N(c1cc(Cl)cc(C#N)c1)[C@H]1CC[C@@H]1O [Example 2A.1.4, (2R,3R,4S,5R,6R)-2-((3-chloro-5-cyanophenyl)((1S,2S)-2-hydroxycyclobutyl)carbamoyl)-5-hydroxy-6-(hydroxymethyl)-4-(4-(3,4,5-trifluorophenyl)-1H-1,2,3-triazol-1-yl)tetrahydro-2H-pyran-3-yl acetate]
IC50: 36.2 nM

COc1cc(-c2cn([C@H]3[C@@H](O)[C@@H](CO)O[C@@H](C(=O)N(c4cc(C)cc(Br)c4)[C@@H]4CCC[C@H]4O)[C@@H]3OC)nn2)cc(F)c1F [Example 1.3.12R, (2R,3R,4S,5R,6R)-N-(3-bromo-5-methylphenyl)-4-(4-(3,4-difluoro-5-methoxyphenyl)-1H-1,2,3-triazol-1-yl)-5-hydroxy-N-((1R,2R)-2-hydroxycyclopentyl)-6-(hydroxymethyl)-3-methoxytetrahydro-2H-pyran-2-carboxamide]
IC50: 411 nM
